Assay results reported in patent publication US11160871B2, “SSTR-targeted conjugates and particles and formulations thereof” (TARVEDA THERAPEUTICS, INC., priority 2015, dated 2021).
Read-outs that look alike come from different tables or passages of the source. Positions of bridges follow the written chain, without caps; N, C: chain ends. Non-standard residues stand in square brackets, D forms with d. Residues, ends and D or L forms follow the SMILES beside them. *: point of attachment. NH(CH2)2SS(DM1) = COc1cc2cc(c1Cl)N(C)C(=O)C[C@H](OC(=O)[C@H](C)N(C)C(=O)CCSSCCN*)[C@]1(C)O[C@H]1[C@H](C)[C@@H]1C[C@@](O)(NC(=O)O1)[C@H](OC)/C=C/C=C(\C)C2; X1 = COc1cc2cc(c1Cl)N(C)C(=O)C[C@H](OC(=O)[C@H](C)N(C)C(=O)CCS*)[C@]1(C)O[C@H]1[C@H](C)[C@@H]1C[C@@](O)(NC(=O)O1)[C@H](OC)/C=C/C=C(\C)C2; Thr(ol) = C[C@@H](O)[C@H](N)CO

Key:
[1] = test system: NCI-H524 human small cell lung cancer cells; assay: cells; assay type: cell-based
Procedure: Conjugates of the present invention were assessed in an in vitro assay evaluating inhibition of cell proliferation. NCI-H524 (ATCC) human small cell lung cancer cells were plated in 96 well, V-bottomed plates (Costar) at a concentration of 5,000 cells/well. 24 hours later, cells were treated with either conjugate for 2 hours and further incubated 70 hours, or for octreotide competition experiments, treated with 100 μM octreotide for 30 min, and then treated with conjugate for 2 hours, and further incubated for 70 hours. Conjugate starting dose was 20 μM and three fold serial dilutions were done for a total of ten points. After 2 hours of treatment, cells were spun down, the drug containing media was removed, and fresh complete medium was added and used to resuspend the cells, which were spun again. After removal of the wash media, the cells were resuspended in complete medium, and then transferred into white walled, flat bottomed 96 well plates. […] Proliferation was measured using CellTiter Glo reagent using the standard protocol (Promega) and a Glomax multi+ detection system (Promega). Percent proliferation inhibition was calculated using the following formula: % inhibition=(control−treatment)/control*100. Control is defined as vehicle alone. IC50 curves were generated using the nonlinear regression analysis (four parameter) with GraphPad Prism 6.

NCI-H69 SCLC tumors = assay: H69 tumor DM-1 levels by LC/MS-MS; assay type: in vivo, mice; conditions: 1 mg/kg; 24 hour time point
Procedure: To examine the ability of conjugates of the present invention to accumulate in tumors, a murine cancer model was used. All mice were treated in accordance with the OLAW Public Health Service Policy on Human Care and Use of Laboratory Animals and the ILAR Guide for the Care and Use of Laboratory Animals. All in vivo studies were conducted following the protocols approved by the Blend Therapeutics Institutional Animal Care and Use Committee. Animals were inoculated with 2.5×10^6 NCI-H69 SCLC (small cell lung cancer) cells in 1:1 RPMI 1640 (Invitrogen, Carlsbad, Calif.)/Matrigel® (BD Biosciences, San Jose, Calif.) via subcutaneous injection to the right flank. Tumors were allowed to reach an approximate volume of ˜500 mm3. Animals were then randomized into treatment groups of 3 animals per time point and were dosed at 1 mg/kg (10% propylene glycol in water for injection for free conjugates, or 10% sucrose for nanoparticles), or 0.4 mg/kg for DM-1 (10% propylene glycol in water for injection). The 24 hour time point was used as a benchmark across conjugates.
Tumor DM-1 levels were determined by liquid chromatography mass spectrometry (LC/MS-MS). Four volumes of 5 mM 6-maleimidohexanoic acid to 1 part tumor v/w was added and homogenized for about 10-15 seconds with a handheld homogenizer. 10 μL of 500 mM Tris(2-carboxyethyl)phosphine was added to 100 uL of tumor homogenate, mixed well and incubated at room temperature for about 5-15 min. 200-300 uL of acetonitrile was used to precipitate proteins in tumor homogenate, samples were centrifuged for 5 min, and supernatant was injected onto LC/MS-MS system for DM-1 analysis.

[2] = 2 hours treatment, 70 hours further incubation, read-out: H524 IC50
[3] = read-out: H524 IC50+ 100 uM octreotide, 100 μM octreotide for 30 min before conjugate

SMILES | IC50 [1, 2] | IC50 [1, 3] | H69 tumor DM-1 levels (NCI-H69 SCLC tumors)
COc1cc2cc(c1Cl)N(C)C(=O)C[C@H](OC(=O)[C@H](C)N(C)C(=O)CCSC1CC(=O)N(CC3CCC(C(=O)N[C@H](Cc4ccccc4)C(=O)N[C@H]4CSSC[C@@H](C(=O)N[C@H](CO)[C@@H](C)O)NC(=O)[C@H]([C@@H](C)O)NC(=O)[C@H](CCCCN)NC(=O)[C@@H](Cc5c[nH]c6ccccc56)NC(=O)[C@H](Cc5ccccc5)NC4=O)CC3)C1=O)[C@]1(C)O[C@H]1[C@H](C)[C@@H]1C[C@@](O)(NC(=O)O1)[C@H](OC)/C=C/C=C(\C)C2 (single isomer, unassigned) [Conjugate 104] | 279 nM | 705 nM | –
COc1cc2cc(c1Cl)N(C)C(=O)C[C@H](OC(=O)[C@H](C)N(C)C(=O)CCSSCCC(=O)NCCOCCOCCOCCOCCOCCOCCOCCOCCC(=O)N[C@H](Cc1ccccc1)C(=O)N[C@H]1CSSC[C@@H](C(=O)N[C@H](CO)[C@@H](C)O)NC(=O)[C@H]([C@@H](C)O)NC(=O)[C@H](CCCCN)NC(=O)[C@@H](Cc3c[nH]c4ccccc34)NC(=O)[C@H](Cc3ccccc3)NC1=O)[C@]1(C)O[C@H]1[C@H](C)[C@@H]1C[C@@](O)(NC(=O)O1)[C@H](OC)/C=C/C=C(\C)C2 [Conjugate 6] | 234 nM | – | –
COc1cc2cc(c1Cl)N(C)C(=O)C[C@H](OC(=O)[C@H](C)N(C)C(=O)CCSSCCCN[C@H](Cc1ccccc1)C(=O)N[C@H]1CSSC[C@@H](C(=O)N[C@H](CO)[C@@H](C)O)NC(=O)[C@H]([C@@H](C)O)NC(=O)[C@H](CCCCN)NC(=O)[C@@H](Cc3c[nH]c4ccccc34)NC(=O)[C@H](Cc3ccccc3)NC1=O)[C@]1(C)O[C@H]1[C@H](C)[C@@H]1C[C@@](O)(NC(=O)O1)[C@H](OC)/C=C/C=C(\C)C2 [Conjugate 76] | – | – | 62.2 nM
COc1cc2cc(c1Cl)N(C)C(=O)C[C@H](OC(=O)[C@H](C)N(C)C(=O)CCSSCCC(=O)NCc1ccc(C[C@@H](N)C(=O)N[C@H]3CSSC[C@@H](C(=O)N[C@H](C(=O)O)[C@@H](C)O)NC(=O)[C@H]([C@@H](C)O)NC(=O)[C@H](CCCCN)NC(=O)[C@@H](Cc4c[nH]c5ccccc45)NC(=O)[C@H](Cc4ccc(O)cc4)NC3=O)cc1)[C@]1(C)O[C@H]1[C@H](C)[C@@H]1C[C@@](O)(NC(=O)O1)[C@H](OC)/C=C/C=C(\C)C2 [Conjugate 115] | – | – | 37.1 nM
COc1cc2cc(c1Cl)N(C)C(=O)C[C@H](OC(=O)[C@H](C)N(C)C(=O)CCSC1CC(=O)N(CC(=O)N[C@H](Cc3ccccc3)C(=O)N[C@H]3CSSC[C@@H](C(=O)N[C@H](CO)[C@@H](C)O)NC(=O)[C@H]([C@@H](C)O)NC(=O)[C@H](CCCCN)NC(=O)[C@@H](Cc4c[nH]c5ccccc45)NC(=O)[C@H](Cc4ccccc4)NC3=O)C1=O)[C@]1(C)O[C@H]1[C@H](C)[C@@H]1C[C@@](O)(NC(=O)O1)[C@H](OC)/C=C/C=C(\C)C2 (single isomer, unassigned) [Conjugate 108] | 96 nM | 1280 nM | –
COc1cc2cc(c1Cl)N(C)C(=O)C[C@H](OC(=O)[C@H](C)N(C)C(=O)CCSSCCNC(=O)N[C@H](Cc1ccccc1)C(=O)N[C@H]1CSSC[C@@H](C(=O)N[C@H](CO)[C@@H](C)O)NC(=O)[C@H]([C@@H](C)O)NC(=O)[C@H](CCCCN)NC(=O)[C@@H](Cc3c[nH]c4ccccc34)NC(=O)[C@H](Cc3ccccc3)NC1=O)[C@]1(C)O[C@H]1[C@H](C)[C@@H]1C[C@@](O)(NC(=O)O1)[C@H](OC)/C=C/C=C(\C)C2 [Conjugate 84] | 76 nM | 312 nM | –
COc1cc2cc(c1Cl)N(C)C(=O)C[C@H](OC(=O)[C@H](C)N(C)C(=O)CCSSC[C@H](N)C(=O)N[C@@H](CCCCN)C(=O)N[C@@H](CCCCN)C(=O)N[C@@H](CCCCN)C(=O)N[C@@H](CCCCN)C(=O)N[C@H](Cc1ccccc1)C(=O)N[C@H]1CSSC[C@@H](C(=O)N[C@H](CO)[C@@H](C)O)NC(=O)[C@H]([C@@H](C)O)NC(=O)[C@H](CCCCN)NC(=O)[C@@H](Cc3c[nH]c4ccccc34)NC(=O)[C@H](Cc3ccccc3)NC1=O)[C@]1(C)O[C@H]1[C@H](C)[C@@H]1C[C@@](O)(NC(=O)O1)[C@H](OC)/C=C/C=C(\C)C2 [Conjugate 7] (H-C(X1)KKKK[dF]CF[dW]KTC[Thr(ol)]; disulfide 7-12) | 955 nM | – | –
COc1cc2cc(c1Cl)N(C)C(=O)C[C@H](OC(=O)[C@H](C)N(C)C(=O)CCSC1CC(=O)N(CCCNC(=O)CC[C@H](NC(=O)[C@@H]3CSSC[C@H](NC(=O)[C@H](N)Cc4ccccc4)C(=O)N[C@@H](Cc4ccc(O)cc4)C(=O)N[C@H](Cc4c[nH]c5ccccc45)C(=O)N[C@@H](CCCCN)C(=O)N[C@@H]([C@@H](C)O)C(=O)N3)C(=O)NCCCN3C(=O)CC(SCCC(=O)N(C)[C@@H](C)C(=O)O[C@H]4CC(=O)N(C)c5cc(cc(OC)c5Cl)C/C(C)=C/C=C/[C@@H](OC)[C@@]5(O)C[C@H](OC(=O)N5)[C@@H](C)[C@@H]5O[C@@]45C)C3=O)C1=O)[C@]1(C)O[C@H]1[C@H](C)[C@@H]1C[C@@](O)(NC(=O)O1)[C@H](OC)/C=C/C=C(\C)C2 (single isomer, unassigned) [Conjugate 53] | 42 nM | 175 nM | –
COc1cc2cc(c1Cl)N(C)C(=O)C[C@H](OC(=O)[C@H](C)N(C)C(=O)CCSSCCC(=O)N[C@H](Cc1ccccc1)C(=O)N[C@H]1CSSC[C@@H](C(=O)N[C@H](CO)[C@@H](C)O)NC(=O)[C@H]([C@@H](C)O)NC(=O)[C@H](CCCCN)NC(=O)[C@@H](Cc3c[nH]c4ccccc34)NC(=O)[C@H](Cc3ccccc3)NC1=O)[C@]1(C)O[C@H]1[C@H](C)[C@@H]1C[C@@](O)(NC(=O)O1)[C@H](OC)/C=C/C=C(\C)C2 [Conjugate 4] | 367 nM | 853 nM | –
CCCCCCCCCCC(CCN[C@H](Cc1ccccc1)C(=O)N[C@H]1CSSC[C@@H](C(=O)N[C@@H](Cc2c[nH]c3ccccc23)C(N)=O)NC(=O)[C@H](C(C)C)NC(=O)[C@H](CCCCN)NC(=O)[C@@H](Cc2c[nH]c3ccccc23)NC(=O)[C@H](Cc2ccc(O)cc2)NC1=O)SSCCC(=O)N(C)[C@@H](C)C(=O)O[C@H]1CC(=O)N(C)c2cc(cc(OC)c2Cl)C/C(C)=C/C=C/[C@@H](OC)[C@@]2(O)C[C@H](OC(=O)N2)[C@@H](C)[C@@H]2O[C@@]12C (single isomer, unassigned) [Conjugate 102] | 335 nM | 579 nM | –
COc1cc2cc(c1Cl)N(C)C(=O)C[C@H](OC(=O)[C@H](C)N(C)C(=O)CCSSCCC(=O)NCCOCCOCCOCCNC(=O)[C@@H](NC(=O)[C@@H]1CSSC[C@H](NC(=O)[C@H](N)Cc3ccccc3)C(=O)N[C@@H](Cc3ccc(O)cc3)C(=O)N[C@H](Cc3c[nH]c4ccccc34)C(=O)N[C@@H](CCCCN)C(=O)N[C@@H]([C@@H](C)O)C(=O)N1)[C@@H](C)O)[C@]1(C)O[C@H]1[C@H](C)[C@@H]1C[C@@](O)(NC(=O)O1)[C@H](OC)/C=C/C=C(\C)C2 [Conjugate 47] | 2130 nM | 1270 nM | –
COc1cc2cc(c1Cl)N(C)C(=O)C[C@H](OC(=O)C(C)N(C)C(=O)CCSSCC(=O)NCCNC(=O)CC[C@H]1C(=O)N[C@@H](Cc3ccc(O)cc3)C(=O)N[C@H](Cc3c[nH]c4ccccc34)C(=O)N[C@@H](CCCCN)C(=O)N[C@@H]([C@@H](C)O)C(=O)N[C@@H](Cc3ccccc3)C(=O)N1C)[C@]1(C)O[C@H]1[C@H](C)[C@@H]1C[C@@](O)(NC(=O)O1)[C@H](OC)/C=C/C=C(\C)C2 (stereo partly drawn) [Conjugate 30] | 470 nM | 2020 nM | –
COc1cc2cc(c1Cl)N(C)C(=O)C[C@H](OC(=O)[C@H](C)N(C)C(=O)CCSSC(C)CCN[C@H](Cc1ccccc1)C(=O)N[C@H]1CSSC[C@@H](C(=O)N[C@H](CO)[C@@H](C)O)NC(=O)[C@H]([C@@H](C)O)NC(=O)[C@H](CCCCN)NC(=O)[C@@H](Cc3c[nH]c4ccccc34)NC(=O)[C@H](Cc3ccccc3)NC1=O)[C@]1(C)O[C@H]1[C@H](C)[C@@H]1C[C@@](O)(NC(=O)O1)[C@H](OC)/C=C/C=C(\C)C2 (single isomer, unassigned) [Conjugate 82] | 148 nM | 867 nM | –
COc1cc2cc(c1Cl)N(C)C(=O)C[C@H](OC(=O)[C@H](C)N(C)C(=O)CCSSCCNC(=O)[C@H](Cc1c[nH]c3ccccc13)NC(=O)[C@@H]1CSSC[C@H](NC(=O)[C@H](N)Cc3ccccc3)C(=O)N[C@@H](Cc3ccc(O)cc3)C(=O)N[C@H](Cc3c[nH]c4ccccc34)C(=O)N[C@@H](CCCCN)C(=O)N[C@@H]([C@@H](C)O)C(=O)N1)[C@]1(C)O[C@H]1[C@H](C)[C@@H]1C[C@@](O)(NC(=O)O1)[C@H](OC)/C=C/C=C(\C)C2 [Conjugate 49] (H-[dF]CY[dW]KTCW-{NH(CH2)2SS(DM1)}; disulfide 2-7) | 69 nM | 243 nM | –
